Experimental data taken from patent publication US12691156B2, “Prebiotic compositions and method for promoting growth of Hafnia alvei by using the same” (TCI CO., LTD., priority 2022, dated 2026).

Tested on: Hafnia alvei BCRC10906
Assay: Influence of prebiotic compositions in different combinations on Hafnia alvei growth (OD600, Embodiment 4)
Assay type: cell-based
Details: for ability to promote the growth of Hafnia alvei (in words) / Relative bacterial count (%): 1 g formula in 10 mL BHI, 24 hours; for Absorbance (OD600): 10 mL BHI medium containing 1 g formula, anaerobic culture 37° C. 24 hours, control group 0.078 ± 0.039; for Relative bacterial count (%): converted from OD600, control group = 100 ± 50
Text: The groups were divided into a control group and 11 experimental groups. The experimental groups included 6 single-formula experimental groups and 5 complex-formula experimental groups, namely a single-formula experimental group to a single-formula experimental group, and a complex-formula experimental group to a complex-formula experimental group. The adopted liquid medium was a brain heart infusion broth (BHI, hereinafter referred to as the BHI medium, and purchased from DifcoTM). The adopted test strains were Hafnia alvei BCRC10906 purchased from Bioresource Collection and Research Center (BCRC). Each group is shown as Table 5. Control group: No prebiotics were added, and the experimental medium was 10 ml of the BHI medium. 6 single-formula experimental groups: A single-formula experimental group containing erythritol (purchased from SWEET TOWN ENTERPRISE CORP.), a single-formula experimental group containing arabinose (purchased from […] Co., Ltd.), a single-formula experimental group containing Arabic gum (purchased from Buildmore Enterprise Co., Ltd.), a single-formula experimental group containing fructooligosaccharide (purchased from Panel Japan Co., Ltd.), a single-formula experimental group containing soybean peptide powder (purchased from FUJI OIL Co. Ltd.), and a single-formula experimental group containing the black tea ferment prepared in Embodiment 1. The experimental medium of each group was 10 ml of the BHI medium containing 1 g of prebiotics (namely, erythritol, arabinose, Arabic gum, fructooligosaccharide, soybean peptide powder, the black tea ferment prepared in Embodiment 1. The 6 single-formula experimental groups were also called single-ingredient formulas to [6]). 5 complex-formula experimental groups: A complex-formula experimental group containing the black tea ferment prepared in Embodiment 1 and the soybean peptide powder; a complex-formula experimental group containing the black tea ferment prepared in Embodiment 1, the soybean peptide powder and erythritol; a complex-formula experimental group containing the black tea ferment prepared in Embodiment 1, the soybean peptide powder and fructooligosaccharide; a complex-formula experimental group containing the black tea ferment prepared in Embodiment 1, the soybean peptide powder and arabinose; and a complex-formula experimental group containing the black tea ferment prepared in Embodiment 1, the soybean peptide powder and Arabic gum. The weight ratio of the prebiotic compositions of the complex-formula experimental groups was 1:1 or 1:1:1. The experimental medium of each group was 10 ml of the BHI medium containing 1 g of prebiotic composition (namely, a combination of 0.5 g of the black tea ferment prepared in Embodiment 1 and 0.5 g of the soybean peptide powder, a combination of about 0.33 g of the black tea ferment prepared in Embodiment 1, about 0.33 g of the soybean peptide powder and about 0.33 g of erythritol, a combination of about 0.33 g of the black tea ferment prepared in Embodiment 1, about 0.33 g of the soybean peptide powder and about 0.33 g of fructooligosaccharide , a combination of about 0.33 g of the black tea ferment prepared in Embodiment 1, about 0.33 g of the soybean peptide powder and about 0.33 g of arabinose, and a combination of about 0.33 g of the black tea ferment prepared in Embodiment 1, about 0.33 g of the soybean peptide powder and about 0.33 g of Arabic gum; and the 5 complex-formula experimental groups are also referred to as complex-ingredient formulas to [5]). [table] Firstly, 5% (v/v) of Hafnia alvei was inoculated to the BHI medium, and activated in an anaerobic operation box (5% of hydrogen, 10% of carbon dioxide and 85% of nitrogen) at 37° C. for 24 hours to obtain an experimental bacterial solution. […]

Compound	ability to promote the growth of Hafnia alvei (in words)	Absorbance (OD600)	Absorbance (OD600) (listed as single-formula experimental group [2])	Relative bacterial count (%)	Absorbance (OD600) (listed as single-formula experimental group [1])
O=C[C@@H](O)[C@H](O)[C@H](O)CO [Single-formula experimental group [2], Arabinose]	promoted the growth of Hafnia alvei	0.176 ± 0.038	0.176±0.038	226 ± 49	–
OC[C@@H](O)[C@@H](O)CO [Single-formula experimental group [1], Erythritol]	promoted the growth of Hafnia alvei	0.169 ± 0.026	–	217 ± 34	0.169±0.026
